In ChEMBL document CHEMBL1150977, “A quantitative analysis of kinase inhibitor selectivity” (Nat Biotechnol, 2008):
pKd: −log10 of the molar value.

How the values were obtained:
[1] = target: T1, Tyrosine-protein kinase JAK3 (Homo sapiens, UniProt P52333)
T1 sequence (P52333 whole entry): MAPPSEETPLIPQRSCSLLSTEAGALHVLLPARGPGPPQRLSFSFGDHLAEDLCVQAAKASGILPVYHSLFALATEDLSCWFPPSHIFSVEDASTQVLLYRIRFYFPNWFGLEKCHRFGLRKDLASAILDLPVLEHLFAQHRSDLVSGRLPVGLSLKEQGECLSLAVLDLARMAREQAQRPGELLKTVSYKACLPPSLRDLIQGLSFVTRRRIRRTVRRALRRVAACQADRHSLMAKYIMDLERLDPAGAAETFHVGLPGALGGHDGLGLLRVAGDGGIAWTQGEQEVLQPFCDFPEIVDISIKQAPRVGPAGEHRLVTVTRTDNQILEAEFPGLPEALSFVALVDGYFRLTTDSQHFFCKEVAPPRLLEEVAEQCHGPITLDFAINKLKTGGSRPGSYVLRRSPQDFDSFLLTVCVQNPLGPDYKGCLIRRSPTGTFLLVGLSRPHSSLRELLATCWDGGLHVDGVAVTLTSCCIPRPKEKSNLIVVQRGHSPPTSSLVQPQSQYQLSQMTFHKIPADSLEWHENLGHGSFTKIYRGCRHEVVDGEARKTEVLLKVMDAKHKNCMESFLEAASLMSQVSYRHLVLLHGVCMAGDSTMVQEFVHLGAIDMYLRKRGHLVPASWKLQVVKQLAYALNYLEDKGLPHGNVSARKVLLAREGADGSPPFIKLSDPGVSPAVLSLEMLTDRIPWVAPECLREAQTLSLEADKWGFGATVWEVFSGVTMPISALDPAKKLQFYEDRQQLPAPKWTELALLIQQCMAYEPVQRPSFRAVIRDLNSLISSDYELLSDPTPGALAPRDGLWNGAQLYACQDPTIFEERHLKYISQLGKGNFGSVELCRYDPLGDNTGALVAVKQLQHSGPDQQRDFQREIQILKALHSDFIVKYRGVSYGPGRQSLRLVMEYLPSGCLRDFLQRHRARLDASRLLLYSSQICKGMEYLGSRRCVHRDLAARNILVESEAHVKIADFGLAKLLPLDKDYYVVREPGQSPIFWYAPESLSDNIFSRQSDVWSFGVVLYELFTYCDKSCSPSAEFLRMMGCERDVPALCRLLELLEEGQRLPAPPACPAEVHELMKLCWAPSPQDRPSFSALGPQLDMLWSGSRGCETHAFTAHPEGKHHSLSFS

[2] = target: T2, Ankyrin repeat and protein kinase domain-containing protein 1 (Homo sapiens, UniProt Q8NFD2)
T2 sequence (Q8NFD2 whole entry): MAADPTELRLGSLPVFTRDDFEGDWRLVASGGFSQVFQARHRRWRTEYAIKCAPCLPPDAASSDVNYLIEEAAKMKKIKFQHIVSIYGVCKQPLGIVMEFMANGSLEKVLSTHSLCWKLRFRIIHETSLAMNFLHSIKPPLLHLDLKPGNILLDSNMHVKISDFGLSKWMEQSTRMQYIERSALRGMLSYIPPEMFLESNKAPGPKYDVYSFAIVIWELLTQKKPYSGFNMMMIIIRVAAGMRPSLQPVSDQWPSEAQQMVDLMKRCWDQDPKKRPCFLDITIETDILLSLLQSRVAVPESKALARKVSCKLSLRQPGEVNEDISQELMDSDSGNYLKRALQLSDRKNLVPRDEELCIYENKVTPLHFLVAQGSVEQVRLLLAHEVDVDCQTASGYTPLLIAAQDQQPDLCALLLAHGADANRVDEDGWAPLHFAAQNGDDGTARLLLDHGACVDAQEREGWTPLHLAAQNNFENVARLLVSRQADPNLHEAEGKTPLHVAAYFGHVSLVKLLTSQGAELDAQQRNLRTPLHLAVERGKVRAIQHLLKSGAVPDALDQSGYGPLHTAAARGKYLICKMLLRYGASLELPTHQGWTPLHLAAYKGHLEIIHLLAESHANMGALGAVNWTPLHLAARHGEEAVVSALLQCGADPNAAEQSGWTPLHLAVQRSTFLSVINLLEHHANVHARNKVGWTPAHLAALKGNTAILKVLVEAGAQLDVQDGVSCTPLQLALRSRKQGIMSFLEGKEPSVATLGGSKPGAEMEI

[3] = target: T3, Tyrosine-protein kinase receptor UFO (Homo sapiens, UniProt P30530)
T3 sequence (P30530 whole entry): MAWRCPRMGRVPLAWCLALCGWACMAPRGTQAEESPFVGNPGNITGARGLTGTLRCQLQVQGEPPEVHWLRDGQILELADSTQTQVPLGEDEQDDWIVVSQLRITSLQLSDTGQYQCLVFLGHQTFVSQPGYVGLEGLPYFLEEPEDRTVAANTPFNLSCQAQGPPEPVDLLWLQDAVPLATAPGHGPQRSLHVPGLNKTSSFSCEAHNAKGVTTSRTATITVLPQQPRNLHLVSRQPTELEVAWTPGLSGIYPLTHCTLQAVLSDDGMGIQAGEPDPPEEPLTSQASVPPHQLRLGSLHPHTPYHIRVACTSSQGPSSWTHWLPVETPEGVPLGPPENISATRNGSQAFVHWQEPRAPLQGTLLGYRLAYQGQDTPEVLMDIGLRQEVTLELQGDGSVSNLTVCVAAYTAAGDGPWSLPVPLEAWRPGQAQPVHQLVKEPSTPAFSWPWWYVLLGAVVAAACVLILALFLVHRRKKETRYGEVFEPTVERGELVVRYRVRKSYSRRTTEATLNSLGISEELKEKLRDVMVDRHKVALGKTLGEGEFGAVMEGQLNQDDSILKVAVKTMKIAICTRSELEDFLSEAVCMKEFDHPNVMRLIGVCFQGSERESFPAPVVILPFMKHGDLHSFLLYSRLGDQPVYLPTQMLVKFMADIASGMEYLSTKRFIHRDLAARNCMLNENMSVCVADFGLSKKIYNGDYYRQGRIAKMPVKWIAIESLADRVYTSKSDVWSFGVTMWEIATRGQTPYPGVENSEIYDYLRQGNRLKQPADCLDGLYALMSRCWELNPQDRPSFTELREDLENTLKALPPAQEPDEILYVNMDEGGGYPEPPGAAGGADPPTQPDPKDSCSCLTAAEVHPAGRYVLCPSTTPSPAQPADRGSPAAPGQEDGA

[4] = target: Calcium/calmodulin-dependent protein kinase type II subunit gamma (Homo sapiens, UniProt Q13555)
Sequence of Calcium/calmodulin-dependent protein kinase type II subunit gamma (Q13555 whole entry): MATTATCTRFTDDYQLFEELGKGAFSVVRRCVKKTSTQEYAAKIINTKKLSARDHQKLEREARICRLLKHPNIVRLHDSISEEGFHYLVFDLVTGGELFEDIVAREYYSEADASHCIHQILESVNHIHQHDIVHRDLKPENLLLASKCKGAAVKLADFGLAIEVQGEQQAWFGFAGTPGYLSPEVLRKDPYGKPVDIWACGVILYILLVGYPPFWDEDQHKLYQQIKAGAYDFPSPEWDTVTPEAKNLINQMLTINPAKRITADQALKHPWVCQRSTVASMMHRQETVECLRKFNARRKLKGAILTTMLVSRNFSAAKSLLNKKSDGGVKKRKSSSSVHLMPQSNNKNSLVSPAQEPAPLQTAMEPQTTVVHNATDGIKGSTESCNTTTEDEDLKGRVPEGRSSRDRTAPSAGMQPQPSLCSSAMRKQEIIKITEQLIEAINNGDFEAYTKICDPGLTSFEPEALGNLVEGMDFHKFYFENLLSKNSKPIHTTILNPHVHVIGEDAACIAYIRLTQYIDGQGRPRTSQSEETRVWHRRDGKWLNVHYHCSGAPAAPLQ

[5] = target: Proto-oncogene tyrosine-protein kinase ROS (Homo sapiens, UniProt P08922)
Sequence of Proto-oncogene tyrosine-protein kinase ROS (P08922 whole entry): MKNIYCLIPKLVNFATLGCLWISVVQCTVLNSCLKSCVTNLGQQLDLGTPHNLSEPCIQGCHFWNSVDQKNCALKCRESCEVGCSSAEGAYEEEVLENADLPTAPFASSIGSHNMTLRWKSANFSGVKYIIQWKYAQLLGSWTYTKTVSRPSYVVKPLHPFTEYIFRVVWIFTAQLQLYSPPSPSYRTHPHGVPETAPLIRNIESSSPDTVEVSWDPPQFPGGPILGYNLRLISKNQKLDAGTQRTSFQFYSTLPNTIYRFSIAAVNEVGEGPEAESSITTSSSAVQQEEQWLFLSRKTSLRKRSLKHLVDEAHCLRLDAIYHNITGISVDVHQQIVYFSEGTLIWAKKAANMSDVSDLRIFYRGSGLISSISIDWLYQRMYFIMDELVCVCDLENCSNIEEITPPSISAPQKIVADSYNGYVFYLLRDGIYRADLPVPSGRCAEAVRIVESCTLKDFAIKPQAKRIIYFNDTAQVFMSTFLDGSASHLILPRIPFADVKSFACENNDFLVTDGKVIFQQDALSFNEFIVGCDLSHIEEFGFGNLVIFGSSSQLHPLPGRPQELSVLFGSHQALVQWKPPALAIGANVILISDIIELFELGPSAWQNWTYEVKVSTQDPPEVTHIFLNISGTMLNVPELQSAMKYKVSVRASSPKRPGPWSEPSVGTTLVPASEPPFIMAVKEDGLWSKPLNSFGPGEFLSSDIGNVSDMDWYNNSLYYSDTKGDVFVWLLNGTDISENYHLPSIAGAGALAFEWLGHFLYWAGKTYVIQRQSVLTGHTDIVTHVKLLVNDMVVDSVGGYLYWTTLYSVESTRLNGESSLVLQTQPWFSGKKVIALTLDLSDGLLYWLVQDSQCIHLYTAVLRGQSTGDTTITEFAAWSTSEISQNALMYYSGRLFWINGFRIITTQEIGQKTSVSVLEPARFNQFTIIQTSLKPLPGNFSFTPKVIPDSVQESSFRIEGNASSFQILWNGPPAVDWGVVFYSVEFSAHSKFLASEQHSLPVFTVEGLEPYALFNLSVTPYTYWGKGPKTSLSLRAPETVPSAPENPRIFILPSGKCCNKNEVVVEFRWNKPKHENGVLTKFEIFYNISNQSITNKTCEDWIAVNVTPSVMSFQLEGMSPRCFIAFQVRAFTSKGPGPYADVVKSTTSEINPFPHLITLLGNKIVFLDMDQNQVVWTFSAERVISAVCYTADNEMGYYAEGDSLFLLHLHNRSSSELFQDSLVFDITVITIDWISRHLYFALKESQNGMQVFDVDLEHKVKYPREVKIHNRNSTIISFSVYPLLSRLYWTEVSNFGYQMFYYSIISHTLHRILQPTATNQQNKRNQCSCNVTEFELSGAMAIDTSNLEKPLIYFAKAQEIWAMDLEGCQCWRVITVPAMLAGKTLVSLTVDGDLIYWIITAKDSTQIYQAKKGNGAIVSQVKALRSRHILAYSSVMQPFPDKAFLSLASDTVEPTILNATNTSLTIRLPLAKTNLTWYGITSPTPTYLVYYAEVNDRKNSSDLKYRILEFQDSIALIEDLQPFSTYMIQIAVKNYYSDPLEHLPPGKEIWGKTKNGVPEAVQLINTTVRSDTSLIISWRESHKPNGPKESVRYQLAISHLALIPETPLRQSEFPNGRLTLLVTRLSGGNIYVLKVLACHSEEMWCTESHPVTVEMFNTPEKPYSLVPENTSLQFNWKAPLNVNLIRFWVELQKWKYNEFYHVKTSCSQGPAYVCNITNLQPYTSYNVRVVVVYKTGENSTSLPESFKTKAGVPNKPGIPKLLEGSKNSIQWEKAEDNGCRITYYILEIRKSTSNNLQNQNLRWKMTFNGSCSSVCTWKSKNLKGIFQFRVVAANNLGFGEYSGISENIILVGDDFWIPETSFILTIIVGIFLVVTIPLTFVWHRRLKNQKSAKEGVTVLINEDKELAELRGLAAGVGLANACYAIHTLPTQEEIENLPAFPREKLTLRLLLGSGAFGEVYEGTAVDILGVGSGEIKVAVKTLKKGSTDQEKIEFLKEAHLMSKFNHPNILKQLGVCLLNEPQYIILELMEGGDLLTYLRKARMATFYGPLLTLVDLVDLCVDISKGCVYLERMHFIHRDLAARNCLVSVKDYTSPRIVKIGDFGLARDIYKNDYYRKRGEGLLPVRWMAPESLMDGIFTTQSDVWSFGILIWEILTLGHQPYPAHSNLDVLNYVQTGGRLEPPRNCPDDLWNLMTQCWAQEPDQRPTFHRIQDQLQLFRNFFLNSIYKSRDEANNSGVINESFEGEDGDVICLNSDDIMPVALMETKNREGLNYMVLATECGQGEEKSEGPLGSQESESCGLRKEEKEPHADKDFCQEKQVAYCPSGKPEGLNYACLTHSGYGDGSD

[6] = target: Atypical kinase COQ8A, mitochondrial (Homo sapiens, UniProt Q8NI60)
LIM domain kinase 2 = LIM domain kinase 2 (Homo sapiens, UniProt P53671)
Sequence of LIM domain kinase 2 (P53671 whole entry, the tested form may be a part): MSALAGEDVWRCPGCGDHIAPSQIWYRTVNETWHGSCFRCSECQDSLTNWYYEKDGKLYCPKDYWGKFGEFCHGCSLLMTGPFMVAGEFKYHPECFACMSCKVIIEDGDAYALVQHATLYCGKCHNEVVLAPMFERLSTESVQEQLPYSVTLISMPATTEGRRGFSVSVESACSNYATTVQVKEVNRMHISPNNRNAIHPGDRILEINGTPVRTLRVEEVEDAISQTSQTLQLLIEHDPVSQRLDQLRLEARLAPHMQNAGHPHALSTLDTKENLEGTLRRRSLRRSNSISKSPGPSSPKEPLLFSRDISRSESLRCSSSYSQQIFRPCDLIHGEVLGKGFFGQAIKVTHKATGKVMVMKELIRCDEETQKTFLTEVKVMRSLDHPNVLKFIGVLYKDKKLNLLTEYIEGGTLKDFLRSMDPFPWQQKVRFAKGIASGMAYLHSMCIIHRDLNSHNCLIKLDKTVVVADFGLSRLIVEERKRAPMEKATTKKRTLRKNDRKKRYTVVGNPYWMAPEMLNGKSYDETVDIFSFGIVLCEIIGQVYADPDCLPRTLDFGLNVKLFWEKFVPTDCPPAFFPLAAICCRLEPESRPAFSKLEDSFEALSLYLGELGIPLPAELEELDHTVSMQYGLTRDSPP

[7] = target: Macrophage colony-stimulating factor 1 receptor (Homo sapiens, UniProt P07333)
Sequence of Macrophage colony-stimulating factor 1 receptor (P07333 whole entry): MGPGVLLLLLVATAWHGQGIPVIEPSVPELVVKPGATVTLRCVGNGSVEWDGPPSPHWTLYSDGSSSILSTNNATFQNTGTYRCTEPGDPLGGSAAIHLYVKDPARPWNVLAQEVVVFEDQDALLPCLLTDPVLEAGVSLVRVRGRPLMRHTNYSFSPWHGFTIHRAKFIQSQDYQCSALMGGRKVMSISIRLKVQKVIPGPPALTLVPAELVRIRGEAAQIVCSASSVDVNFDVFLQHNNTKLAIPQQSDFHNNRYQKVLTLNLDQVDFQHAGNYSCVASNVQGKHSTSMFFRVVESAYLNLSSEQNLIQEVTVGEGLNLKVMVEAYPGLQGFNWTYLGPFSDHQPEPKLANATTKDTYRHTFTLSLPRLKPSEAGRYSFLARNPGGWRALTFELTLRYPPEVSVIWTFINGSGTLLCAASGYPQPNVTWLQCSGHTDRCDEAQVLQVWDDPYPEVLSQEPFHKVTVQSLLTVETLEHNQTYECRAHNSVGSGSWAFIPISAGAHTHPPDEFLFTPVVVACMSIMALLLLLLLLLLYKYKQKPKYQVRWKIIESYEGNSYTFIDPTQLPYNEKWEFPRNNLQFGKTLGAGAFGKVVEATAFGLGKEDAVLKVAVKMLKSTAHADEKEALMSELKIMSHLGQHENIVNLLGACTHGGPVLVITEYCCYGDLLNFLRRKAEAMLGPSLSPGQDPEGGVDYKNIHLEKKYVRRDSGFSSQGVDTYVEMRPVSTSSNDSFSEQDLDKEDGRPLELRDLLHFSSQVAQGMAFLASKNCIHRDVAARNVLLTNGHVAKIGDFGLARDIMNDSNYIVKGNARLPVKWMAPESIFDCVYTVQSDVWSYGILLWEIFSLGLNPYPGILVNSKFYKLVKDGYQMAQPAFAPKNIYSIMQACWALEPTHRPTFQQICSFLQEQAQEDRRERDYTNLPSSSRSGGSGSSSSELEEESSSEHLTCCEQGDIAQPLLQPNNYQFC

Row | SMILES | pKd [1] | pKd [2] | pKd [3] | pKd [4] | pKd [5] | pKd [6] | pKd (LIM domain kinase 2) | pKd [7]
1 | CCOc1cc2ncc(C#N)c(Nc3ccc(F)c(Cl)c3)c2cc1NC(=O)/C=C/CN(C)C [PELITINIB] | 7.60 | < 5.00 | 6.04 | < 5.00 | < 5.00 | < 5.00 | < 5.00 | 
2 | COCC(=O)NC/C=C/c1ccc2ncnc(Nc3ccc(Oc4ccc(C)nc4)c(C)c3)c2c1 [CP-724714] | < 5.00 | < 5.00 | < 5.00 | < 5.00 | < 5.00 | < 5.00 | < 5.00 | < 5.00
3 | NC(=O)c1ccc(-c2nc(-c3ccc4c(c3)OCO4)c(-c3ccccn3)[nH]2)cc1 [SB-431542] | < 5.00 | < 5.00 | < 5.00 | < 5.00 | < 5.00 | < 5.00 | < 5.00 | < 5.00
4 | Nc1nc(Nc2ccc(S(N)(=O)=O)cc2)nn1C(=O)c1c(F)cccc1F [JNJ-7706621] |  |  |  | < 5.00 | < 5.00 |  |  | 
5 | Oc1ccc(-c2nc(-c3ccncc3)c(-c3ccc(F)cc3)[nH]2)cc1 [SB-202190] | < 5.00 | < 5.00 | < 5.00 | < 5.00 | < 5.00 | < 5.00 | < 5.00 | < 5.00
6 | CCN1CCN(Cc2ccc(NC(=O)Nc3ccc(Oc4cc(NC)ncn4)cc3)cc2C(F)(F)F)CC1 [AST-487] |  |  |  |  |  |  | < 5.00 | 
